Source: ChEMBL document CHEMBL1909046, “DrugMatrix in vitro pharmacology data”

Assays:
[1] = target: T1, Alpha-1A adrenergic receptor (Rattus norvegicus, UniProt P43140); test: DRUGMATRIX: Alpha-1A adrenergic receptor radioligand binding (ligand: prazosin); type: cell membranes, Wistar, Submaxillary gland, Membrane; settings: Not Active = under 50% inhibition at 10 µM; for Ki: read-out: Ki
T1 sequence (P43140 whole entry): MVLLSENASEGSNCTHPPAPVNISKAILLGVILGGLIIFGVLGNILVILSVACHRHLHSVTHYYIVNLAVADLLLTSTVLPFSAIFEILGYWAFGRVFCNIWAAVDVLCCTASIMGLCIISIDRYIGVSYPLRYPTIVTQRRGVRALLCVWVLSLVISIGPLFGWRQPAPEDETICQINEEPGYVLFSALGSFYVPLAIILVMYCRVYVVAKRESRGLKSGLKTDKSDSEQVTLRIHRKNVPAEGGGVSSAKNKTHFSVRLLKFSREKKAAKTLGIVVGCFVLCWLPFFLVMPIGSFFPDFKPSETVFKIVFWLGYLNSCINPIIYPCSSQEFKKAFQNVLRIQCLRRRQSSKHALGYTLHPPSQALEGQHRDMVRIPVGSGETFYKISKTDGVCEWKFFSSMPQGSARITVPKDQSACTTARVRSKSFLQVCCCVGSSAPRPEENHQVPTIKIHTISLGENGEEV

[2] = target: 5-hydroxytryptamine receptor 2B (Homo sapiens, UniProt P41595); type: cell membranes, CHO-K1, Membrane; settings: for Ki: read-out: Ki; on all read-outs here: in other assays of this panel Not Active means under 50% inhibition at 10 µM
Sequence of 5-hydroxytryptamine receptor 2B (P41595 whole entry): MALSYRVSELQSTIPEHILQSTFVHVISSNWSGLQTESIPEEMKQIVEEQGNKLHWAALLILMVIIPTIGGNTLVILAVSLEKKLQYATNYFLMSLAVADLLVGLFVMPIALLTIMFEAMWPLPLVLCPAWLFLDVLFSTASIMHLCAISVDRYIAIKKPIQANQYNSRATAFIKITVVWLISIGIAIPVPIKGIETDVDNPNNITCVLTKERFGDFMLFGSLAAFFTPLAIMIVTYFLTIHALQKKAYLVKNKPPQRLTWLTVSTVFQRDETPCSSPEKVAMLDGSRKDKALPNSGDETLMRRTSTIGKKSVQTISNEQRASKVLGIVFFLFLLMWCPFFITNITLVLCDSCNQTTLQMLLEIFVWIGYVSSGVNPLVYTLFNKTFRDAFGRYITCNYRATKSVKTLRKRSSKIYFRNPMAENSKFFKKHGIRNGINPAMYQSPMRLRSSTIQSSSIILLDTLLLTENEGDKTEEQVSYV

[3] = target: T2, 5-hydroxytryptamine receptor 2C (Homo sapiens, UniProt P28335); test: DRUGMATRIX: Serotonin (5-Hydroxytryptamine) 5-HT2C radioligand binding (ligand: [3H] Mesulergine); type: cell membranes, CHO-K1, Membrane; settings: Not Active = under 50% inhibition at 10 µM; for Ki: read-out: Ki
T2 sequence (P28335 whole entry): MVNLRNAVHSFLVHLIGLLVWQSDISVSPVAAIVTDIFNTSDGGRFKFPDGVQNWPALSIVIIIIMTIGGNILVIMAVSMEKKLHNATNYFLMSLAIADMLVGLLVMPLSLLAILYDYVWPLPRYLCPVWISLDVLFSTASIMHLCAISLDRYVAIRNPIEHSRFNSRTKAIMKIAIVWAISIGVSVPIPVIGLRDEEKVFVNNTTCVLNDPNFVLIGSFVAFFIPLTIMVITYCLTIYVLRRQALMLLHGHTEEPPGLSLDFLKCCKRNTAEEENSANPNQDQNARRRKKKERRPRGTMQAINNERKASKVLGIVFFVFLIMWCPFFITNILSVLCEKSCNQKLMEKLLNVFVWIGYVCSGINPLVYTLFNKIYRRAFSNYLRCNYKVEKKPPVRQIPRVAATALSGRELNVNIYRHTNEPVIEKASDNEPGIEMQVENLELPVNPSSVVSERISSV

[4] = DRUGMATRIX: Glutamate, Kainate radioligand binding (ligand: [3H] Kainic acid); type: cell membranes, Rattus norvegicus, Wistar, Brain, Membrane; settings: Not Active = under 50% inhibition at 10 µM
[5] = DRUGMATRIX: Phosphodiesterase PDE4 enzyme inhibition (substrate: [3H]cAMP + cAMP); settings: u-937, Not Active = under 50% inhibition at 10 µM
[6] = target: Cytochrome P450 2C9 (Homo sapiens, UniProt P11712); settings: bti-tn-5b1-4; further: in other assays of this panel Not Active means under 50% inhibition at 10 µM
Sequence of Cytochrome P450 2C9 (P11712 whole entry): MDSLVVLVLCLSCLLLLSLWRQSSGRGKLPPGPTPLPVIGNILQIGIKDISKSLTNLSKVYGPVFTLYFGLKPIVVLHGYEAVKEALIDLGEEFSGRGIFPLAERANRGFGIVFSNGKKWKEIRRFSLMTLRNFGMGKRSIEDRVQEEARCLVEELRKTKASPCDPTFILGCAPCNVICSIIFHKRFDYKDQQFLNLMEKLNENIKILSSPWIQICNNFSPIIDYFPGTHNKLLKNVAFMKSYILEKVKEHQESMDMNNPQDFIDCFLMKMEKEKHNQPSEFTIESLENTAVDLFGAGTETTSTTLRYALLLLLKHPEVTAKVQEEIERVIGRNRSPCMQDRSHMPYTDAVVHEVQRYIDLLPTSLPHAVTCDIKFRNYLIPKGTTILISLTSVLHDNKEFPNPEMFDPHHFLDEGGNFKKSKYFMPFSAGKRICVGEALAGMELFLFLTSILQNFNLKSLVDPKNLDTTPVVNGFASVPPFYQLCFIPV

SMILES	IC50 [1]	IC50 ([2]; cho-k1)	IC50 ([3]; cho-k1)	IC50 [4]	Ki [4]	IC50 ([5]; read-out: IC50) [nM]	IC50 [5]	Ki [5]	IC50 [6]	Ki [6]	IC50 ([2]; read-out: IC50) [nM]	Ki [2] [nM]	IC50 ([3]; read-out: IC50) [nM]	Ki [3] [nM]	IC50 ([1]; read-out: IC50) [nM]	Ki [1] [nM]
CCOc1nc2cccc(C(=O)O)c2n1Cc1ccc(-c2ccccc2-c2nnn[nH]2)cc1	Not Active	Not Active	Not Active	Not Active	Not Active	276										
O=C(O)CCCc1cccs1	Not Active	Not Active	Not Active	Not Active	Not Active		Not Active	Not Active	Not Active	Not Active						
COc1ccccc1N	Not Active	Not Active	Not Active	Not Active	Not Active		Not Active	Not Active	Not Active	Not Active						
O=C(c1ccccc1F)N1CCC(Cc2ccccc2)CC1	Not Active	Not Active	Not Active	Not Active	Not Active		Not Active	Not Active								
Cc1c(O)cccc1C(=O)N[C@@H](CSc1ccccc1)[C@H](O)CN1C[C@H]2CCCC[C@H]2C[C@H]1C(=O)NC(C)(C)C	Not Active	Not Active	Not Active	Not Active	Not Active		Not Active	Not Active	Not Active	Not Active						
CC(O)COC[C@H]1O[C@@H]2O[C@H]3[C@H](O)[C@@H](O)[C@@H](O[C@H]4[C@H](O)[C@@H](O)[C@@H](O[C@H]5[C@H](O)[C@@H](O)[C@@H](O[C@H]6[C@H](O)[C@@H](O)[C@@H](O[C@H]7[C@H](O)[C@@H](O)[C@@H](O[C@H]8[C@H](O)[C@@H](O)[C@@H](O[C@H]1[C@H](O)[C@H]2O)O[C@@H]8COCC(C)O)O[C@@H]7COCC(C)O)O[C@@H]6COCC(C)O)O[C@@H]5COCC(C)O)O[C@@H]4COCC(C)O)O[C@@H]3COCC(C)O (stereo partly drawn) [2-HYDROXYPROPYL-BETA-CYCLODEXTRIN]	Not Active			Not Active	Not Active		Not Active	Not Active	Not Active	Not Active	63	40	1590	833		
NC(=O)c1cccc(N)c1 [3-AMINOBENZAMIDE]	Not Active	Not Active	Not Active	Not Active	Not Active		Not Active	Not Active	Not Active	Not Active						
C[C@H]1O[C@H](O[C@H]2[C@H](O)[C@@H](O)[C@@H](O[C@H]3[C@H](O)[C@@H](O)C(O)O[C@@H]3CO)O[C@@H]2CO)[C@H](O)[C@@H](O)[C@@H]1N[C@H]1C=C(CO)[C@@H](O)[C@H](O)[C@H]1O (some centres undefined) [ACARBOSE]	Not Active	Not Active	Not Active	Not Active	Not Active		Not Active	Not Active	Not Active	Not Active						
CC[C@H]1[C@@H]2C[C@H]3[C@@H]4N(C)c5ccccc5[C@]45C[C@@H]([C@@H]2[C@H]5O)N3[C@@H]1O [AJMALINE]	Not Active	Not Active	Not Active	Not Active	Not Active		Not Active	Not Active	Not Active	Not Active						
NC12CC3CC(CC(C3)C1)C2 [AMANTADINE]	Not Active	Not Active	Not Active	Not Active	Not Active		Not Active	Not Active								
NCCCNCCSP(=O)(O)O [AMIFOSTINE]	Not Active	Not Active	Not Active	Not Active	Not Active		Not Active	Not Active	Not Active	Not Active						
CN(C)CCC=C1c2ccccc2CCc2ccccc21 [AMITRIPTYLINE]				Not Active	Not Active		Not Active	Not Active	Not Active	Not Active			6.05	3.17	14	5.6
CC(=O)Oc1ccccc1C(=O)O [ASPIRIN]	Not Active	Not Active	Not Active	Not Active	Not Active		Not Active	Not Active	Not Active	Not Active						
CC(C)c1c(C(=O)Nc2ccccc2)c(-c2ccccc2)c(-c2ccc(F)cc2)n1CC[C@@H](O)C[C@@H](O)CC(=O)O [ATORVASTATIN]	Not Active	Not Active	Not Active	Not Active	Not Active		Not Active	Not Active								
CC(=O)OC[C@H]1O[C@@H](n2ncc(=O)[nH]c2=O)[C@H](OC(C)=O)[C@@H]1OC(C)=O [AZARIBINE]	Not Active	Not Active	Not Active	Not Active	Not Active		Not Active	Not Active	Not Active	Not Active						
CC(C)C[C@H]1C(=O)N2CCC[C@H]2[C@]2(O)O[C@](NC(=O)[C@@H]3C=C4c5cccc6[nH]cc(c56)C[C@H]4N(C)C3)(C(C)C)C(=O)N12 [ERGOCRYPTINE]				Not Active	Not Active		Not Active	Not Active			13	8.22	147	77	11	4.28
CC(C)(C(=O)O)c1ccc(C(O)CCCN2CCC(C(O)(c3ccccc3)c3ccccc3)CC2)cc1 (centres undefined) [FEXOFENADINE]	Not Active	Not Active	Not Active	Not Active	Not Active		Not Active	Not Active								
CC(=O)OCC(=O)[C@@]12OC(C)(C)O[C@@H]1C[C@H]1[C@@H]3C[C@H](F)C4=CC(=O)C=C[C@]4(C)[C@@]3(F)[C@@H](O)C[C@@]12C [FLUOCINONIDE]	Not Active	Not Active	Not Active	Not Active	Not Active		Not Active	Not Active								
CCC1=C(C)CN(C(=O)NCCc2ccc(S(=O)(=O)NC(=O)N[C@H]3CC[C@H](C)CC3)cc2)C1=O [GLIMEPIRIDE]	Not Active	Not Active	Not Active	Not Active	Not Active		Not Active	Not Active								
N[C@@H](Cn1ccc(=O)c(O)c1)C(=O)O [L-MIMOSINE]	Not Active	Not Active	Not Active	Not Active	Not Active		Not Active	Not Active								
CC(C)(C)NCC(O)COc1cccc2c1CC(O)C(O)C2 (centres undefined) [NADOLOL]	Not Active	Not Active	Not Active	Not Active	Not Active		Not Active	Not Active								
C[C@@H]1C/C=C/C=C/C=C/C=C/[C@H](O[C@@H]2O[C@H](C)[C@@H](O)[C@H](N)[C@@H]2O)C[C@@H]2O[C@](O)(C[C@@H](O)C[C@H]3O[C@@H]3/C=C/C(=O)O1)C[C@H](O)[C@H]2C(=O)O [NATAMYCIN]	Not Active	Not Active	Not Active	Not Active	Not Active		Not Active	Not Active								
COc1ccc2c(c1OC)C(=O)O[C@@H]2[C@H]1c2c(cc3c(c2OC)OCO3)CCN1C [NOSCAPINE]	Not Active	Not Active	Not Active	Not Active	Not Active		Not Active	Not Active								
N=C(N)c1ccc(OCCCCCOc2ccc(C(=N)N)cc2)cc1 [PENTAMIDINE]		Not Active		Not Active	Not Active		Not Active	Not Active					3280	1720	1210	491
NNCCc1ccccc1 [PHENELZINE]	Not Active	Not Active	Not Active	Not Active	Not Active		Not Active	Not Active								
